How the values were obtained:
[1] = test system: melanoma PDOX; test: Confocal microscopy of S. typhimurium A1-R-GFP tumor targeting (fluorescent area); type: in vivo, Athymic nu/nu nude mice; conditions: drug combined with S. typhimurium A1-R
Procedure: GFP-expressing S. typhimurium A1-R bacteria (AntiCancer Inc.,) were grown overnight on LB medium (Fisher Sci., Hanover Park, Ill., USA) and then diluted 1:10 in LB medium. Bacteria were harvested at late-log phase, washed with PBS, and then diluted in PBS. S. typhimurium A1-R was injected intravenously. A total of 5×10^7 CFU S. typhimurium A1-R in 100 μl PBS was administered to each mouse.
(§1) PDOX mouse models were randomized into four groups of 10 mice each: untreated control (n=10); treated with S. typhimurium A1-R (5×10^7 CFU/100 μl, i.v., qw×2, n=10); treated with TEM (25 mg/kg, p.o., qd×14) combined with S. typhimurium A1-R (5×10^7 CFU/[…]., qw×2, n=10); treated with VEM (30 mg/kg, p.o., qd×14) combined with S. typhimurium A1-R (5×10^7CFU/100 μl, i.v., qw×2, n=10). Tumor length and width were measured twice a week. Tumor volume was calculated with the following formula: Tumor volume (mm3)=length (mm)×width (mm)×width (mm)×½. Data are presented as mean±SD. The tumor volume ratio is defined at the tumor volume at any given time point relative to the initial tumor volume.
The FV1000 confocal microscope (Olympus, Tokyo, Japan) was used for high-resolution imaging. Fluorescence images were obtained using the 20×/0.50 UPLAN FLN and 40×/1.3 oil Olympus UPLAN FLN objectives. The tumor fluorescent area was analyzed with UVP software (UVP, Upland, Calif.).

[2] = test system: melanoma PDOX; test: Histological analysis (H&E) of treated PDOX tumors; type: in vivo, Athymic nu/nu nude mice; conditions: each drug combined with S. typhimurium A1-R; much more extensive than S. typhimurium A1-R
Procedure: as §1
Fresh tumor samples were fixed in 10% formalin and embedded in paraffin before sectioning and staining. Tissue sections (5 μm) were deparaffinized in xylene and rehydrated in an ethanol series. Hematoxylin and eosin (H&E) staining was performed according to standard protocols. Histological examination was performed with a BHS System Microscope (Olympus Corporation, Tokyo, Japan). Images were acquired with INFINITY ANALYZE software (Lumenera Corporation, Ottawa, Canada).

Cn1nnc2c(C(N)=O)ncn2c1=O [TEM, temozolamide]
S. typhimurium A1-R tumor targeting / accumulation ([1]; elevated accumulation leading to extensive tumor necrosis): promoted S. typhimurium A1-R tumor targeting | S. typhimurium A1-R-GFP fluorescent area compared to S. typhimurium A1-R alone ([1]; p<0.01): significantly increase | tumor necrosis (histology) [2]: extensive necrosis

From patent US20180236011A1, “METHODS TO ENHANCE TUMOR-TARGETING BY BACTERIA” (priority 2017, published 2018)
